Test results as given in patent publication US20070219154A1, “Methods for preventing and/or treating a cell proliferative disorder” (priority 2005, published 2007).

What was measured:
Type in all cases: cell-based, human
[1] = system: glioma cancer cell line SF295; test: Soft agar assay, SF295
Method: (§1) Cell proliferation was ascertained by soft agar assay. In brief, cells were grown within a matrix of 1.2% soft agar that contained PAR-1 inhibitor at the appropriate concentration. Plates containing cells in the soft agar were incubated at 37° C. for approximately 2 weeks until cell colonies were visible. Cells were then stained by adding 1 mg/ml MTT in PBS and incubating at 37° C. for 1-2 hours. After which the staining solution was removed and plates incubated at 4° C. for 1-2 hours to resolidify agar before scanning.

[2] = system: pancreatic cancer cell line MiaPaCa2; test: Soft agar assay, MiaPaCa2
Method: as §1

[3] = system: glioma cell line SNB19; test: Intracellular Ca2+ release (FLIPR) assay, SNB19; conditions: thrombin 0.1-100 nM, FIG. 14
Method: (§2) As detailed below, intracellular Ca^2+ release was measured in various tumor cell lines treated with thrombin. Likewise, intracellular Ca^2+ release was measured in a subset of those tumor cell lines treated with thrombin and PAR-1 inhibitor Formula 2. In brief, cells were plated into a 96-well plate at a density of 4×10^4 cells per well and allowed to attach overnight at 37° C. prior to loading with Fluo-4AM. Cells were then incubated at 37° C. for 60 minutes. After washing the cells, thrombin as well as the appropriate concentration of PAR-1 inhibitor Formula 2 was added and cells incubated at 37° C. for 30 minutes prior to taking fluorescence readings.

[4] = system: pancreatic cancer cell line Panc1; test: Calcein AM assay, Panc1; conditions: 3 days, FIG. 18
Method: (§3) Viability of cells was ascertained using the LIVE/DEAD Viability/Cytotoxicity calcein AM assay [Molecular Probes, technical bulletin MP03224] in the pancreatic cell line MiaPaCa2 and the pancreatic cancer cell line Panc1 following treatment with thrombin, or PAR-1 inhibitor in the presence or absence of thrombin (at a concentration of 10 nM). Calcein AM is a cell-permeant nonflouroescent molecule which is cleaved by esterases found within live cells to create the intensely fluorescent calcein. The polyanionic dye calcein is retained within live cells, producing an intense uniform green fluorescence which can be measured by a fluorescent multiwell plate reader to determine the actual number of live cells in each well. In brief, 1×10^4 cells per well were plated into a 96-well plate and allowed to attach overnight at 37° C. prior to treatment with serum-free media containing 10 nM thrombin as well as the appropriate concentration of PAR-1 inhibitor Formula 2 (5×10^−9; 1×10^−8; 5×10^−8; 1×10^−7; 5×10^−7; 1×10^−6; 5×10^−6; or 1×10^−5 M). Cells were then incubated at 37° C. for 3 days prior to adding Calcein AM reagent and reading fluorescence.

[5] = system: pancreatic cell line MiaPaCa2; test: Calcein AM assay, MiaPaCa2; conditions: 3 days, FIG. 18
Method: as §3

[6] = system: prostate cancer cell line PC-3; test: Intracellular Ca2+ release (FLIPR) assay, PC-3; conditions: thrombin 0.1-100 nM, FIG. 14
Method: as §2

[7] = system: pancreatic cancer cell line MiaPaCa2; test: Intracellular Ca2+ release (FLIPR) assay, MiaPaCa2; conditions: thrombin 0.1-100 nM, FIG. 14
Method: as §2

[8] = system: glioma cell line U373; test: Intracellular Ca2+ release (FLIPR) assay, U373; conditions: thrombin 0.1-100 nM, FIG. 14
Method: as §2

[9] = system: ovarian cancer cell line SKOV-3; test: Intracellular Ca2+ release (FLIPR) assay, SKOV-3; conditions: thrombin 0.1-100 nM, FIG. 14
Method: as §2

[10] = system: glioma cell line U373; test: 14C-thymidine incorporation assay, U373; conditions: thrombin 0.001-1000 nM, 48 hours, FIG. 16
Method: (§4) Cell growth proliferation was ascertained by measuring ^14C-thymidine incorporation in various cell lines treated with thrombin in the presence or absence of a PAR-1 inhibitor. In brief, 5×10^3 cells per well were seeded in a 96-well plate and incubated at 37° C. for 1 day. The cells were starved with serum-free medium for 1 day prior to treatment with serum-free media containing 0.5 μCi/ml ^14C-thymidine as well as PAR-1 inhibitor and/or thrombin (where applicable). The cells were then incubated at 37° C. for 48 hours prior to reading radioactivity on a beta counter (1450 Microbeta Plus, Liquid Scintillation Counter (Wallac Software, Perkin Elmer) using the program for ^14C counting on 96-well Cytostar-T scintillating microplate (Amersham Pharmacia Biotech, Piscataway, N.J.).

[11] = system: glioma cell line U118MG; test: Intracellular Ca2+ release (FLIPR) assay, U118MG; conditions: thrombin 0.1-100 nM, FIG. 14
Method: as §2

[12] = system: glioma cell line T98G; test: Intracellular Ca2+ release (FLIPR) assay, T98G; conditions: thrombin 0.1-100 nM, FIG. 14
Method: as §2

[13] = system: pancreatic cancer cell line MiaPaCa2; test: 14C-thymidine incorporation assay, MiaPaCa2; conditions: 48 hours
Method: as §4

[14] = system: glioma cell line SF295; test: Intracellular Ca2+ release (FLIPR) assay, SF295; conditions: thrombin 0.1-100 nM, FIG. 14
Method: as §2

| IC50 ([1]; Homo sapiens, SF-295, 336 h, approximately 2 weeks, FIG. 21, read-out: IC50, cell proliferation (soft agar assay)) [µM] | IC50 ([2]; Homo sapiens, MIA PaCa-2, 336 h, approximately 2 weeks, FIG. 20, read-out: IC50, cell proliferation (soft agar assay)) [µM] | EC50 ([13]; read-out: EC50 of thrombin, cell proliferation (14C-thymidine incorporation)) [pM] | Compound | inhibition of cell proliferation (soft agar assay) ([1]; 0-30,000 nM, dose-dependent manner) | anti-proliferative effects ([1]; at higher doses) | inhibition of cell proliferation (soft agar assay) ([2]; 0-10,000 nM, dose-dependent manner) | anti-proliferative effects ([2]; at higher doses) | intracellular Ca2+ release stimulated by thrombin [3] | thrombin-induced cell proliferation (calcein AM) [4] | thrombin-induced cell proliferation (calcein AM) [5] | intracellular Ca2+ release stimulated by thrombin [6] | intracellular Ca2+ release stimulated by thrombin [7] | intracellular Ca2+ release stimulated by thrombin [8] | intracellular Ca2+ release stimulated by thrombin [9] | thrombin-induced cell proliferation (14C-thymidine incorporation) [10] | intracellular Ca2+ release stimulated by thrombin [11] | intracellular Ca2+ release stimulated by thrombin [12] | thrombin-induced cell proliferation (14C-thymidine incorporation) ([13]; thrombin 10^-4 to 10^2 nM, FIG. 17) | intracellular Ca2+ release stimulated by thrombin [14] |
| --- | --- | --- | --- | --- | --- | --- | --- | --- | --- | --- | --- | --- | --- | --- | --- | --- | --- | --- | --- |
| 6.1 | 5.2 | – | CCOC(=O)N[C@@H]1CC[C@@H]2[C@@H](C1)C[C@H]1C(=O)O[C@H](C)[C@H]1[C@H]2/C=C/c1ccc(-c2ccccc2C#N)cn1 [Formula 3] | inhibited | modest | inhibited | modest | – | – | – | – | – | – | – | – | – | – | – | – |
| – | – | 14 | thrombin | – | – | – | – | stimulates | minimal | dose-dependent | stimulates | stimulates | stimulates | stimulates | dose-dependent | stimulates | stimulates | dose-dependent | stimulates |
